The numbers were not newly measured in patent US20020022649A1, “STABLE PHARMACEUTICAL FORMULATION” (priority 1998, published 2002), which cites them from elsewhere.

The conditions of this series: centchroman as a racemate.

In the case of `COc1ccc2c(c1)OC(C)(C)C(c1ccccc1)C2c1ccc(OCCN2CCCC2)cc1` (racemic) [centchroman, 3,4-trans-2,2-dimethyl-3-phenyl-4-[4-(2-pyrrolidin-1-yl)ethoxy)phenyl]-7-methoxychroman], the “cholesterol lowering, serum concentrations” value is “significant decrease of the serum concentrations”.
